Test results from US4510144A, “Methods of imparting immunomodulating activity with dihydrothiazolo purine derivatives” (Newport Pharmaceuticals International, priority 1982, dated 1985).
Where two headings read alike, the source gives them in different places.

What was measured:
[1] = preliminary toxicity studies in Balb/C mice; assay type: in vivo
Experimental: If it is assumed 50 mg/kg is the minimum lethal dose and it is assumed <0.05 mg/kg is the minimum effective dose, the lowest possible therapeutic ratio for NPT 16416 is 50/0.05 or 1000/1.0. It is believed that the toxicity is far less by the oral route since 500 mg/kg p.o. produced no deaths in Balb/c mice.

[2] = tested on: murine spleen cells, LPS induced (B-cells); assay: LPS induced lymphocyte proliferation in mouse spleen cells in vitro; assay type: cell-based, mouse (Balb/C); details: for activity at 0.01 µg/mL / activity at 0.1 µg/mL / activity at 1 µg/mL / activity at 2.5 µg/mL / activity at 5 µg/mL / activity at 25 µg/mL / activity at 50 µg/mL: Mus musculus, B-cell
Source text: (1) Mitogen-(Lipopolysaccharide, LPS or Con A) induced lymphocyte proliferation using murine spleen cells (in vitro)
1. […] LPS is a mitogen which acts preferentially on B-cells. […] Con A is considered a T-cell mitogen.
1. Balb/C male mice, 7-8 weeks old, are used up to 20-24 weeks of age.
2. The animals are sacrificed by cervical dislocation and the animals' left sides swabbed with 70% ethanol. An incision is made between the lower ribs and pelvis, laterally from front to back, and the skin retracted. Aseptic technique is to be observed from this point on.
3. The spleen is gently removed with sterile forceps. […] When all spleens have been collected and cleaned they are placed in a second petri dish containing 3 ml cold RPMI.
4. Spleen cell suspensions are prepared by gentle mincing of the tissue with a sterile blade and filtering through #100 stainless steel mesh.
6. An aliquot of the above suspension is prepared for cell counting as follows: 0.1 ml of suspension is diluted to 1.0 ml with 3% acetic acid and let stand at room temperature for at least five minutes. The sample is then diluted 1:100 with "Isoton II" (Curtis-Matheson Co.) and counted in a coulter counter.
MURINE SPLENOCYTE STIMULATION WITH CONCANAVALIN A (CON A), LIPOPOLYSACCHARIDE (LPS), AND ALLOGENEIC SPLENOCYTES (LMC).
There is set forth below the standard procedure which should be modified according to the solubility and other properties of the particular compound tested.
Add ~10 ml RPMI to 1.79 g HEPES and vortex until completely dissolved. […] Allow to warm temperature before use.
6. LPS (Sigma, E, coli serotype #011:84)--~1 mg/ml. […] Remove ~10 ml for dissolving HEPES (0.358 g) and filter HEPES solution. Add four 25 mg bottles of LPS to remaining media and incubate at 37° C. for 1 hour. Filter through 0.22 μm filters, add filtered HEPES, aliquot in 2 ml and store at -70° C.
8. Tritiated thymidine (^3 H-TdR, Schwartz-Mann, 6 Ci/mM). Remove a slightly larger volume of ^3 H-TdR than needed from vial with a 1 cc syringe and place volume in the cap of a small sterile plastic tube. […] Vortex thoroughly before adding to plates.
1. Animals are sacrificed by cervical dislocation killing one from each group and processing the cells individually before killing the next animal. Swab each animal with 70% ethanol before surgery. […] Use 8 vertical strokes (or enough to break up all tissue) with Teflon-tipped homogenizer. Filter each sample through a 100 mesh screen into a 50 ml tube. […] After all samples have been spun, vortex each briefly and let sit for 1 hour. Vortex each sample ~5 seconds, waiting ~10 seconds between each sample. Let sit 5 minutes, then pipet cell suspension into 5 ml (12×75 mm) tube being careful not to remove any sediment. Remove 50 ul cell suspension using micropipetter, carefully wipe pipet tip with kimwipe and pipet into 20 ml Isoton in Coulter counter vial, rinsing pipet several times in the Isoton. Add 6 drops of CyMet and swirl vial to mix. Use the following Coulter counter settings: Amplification-1, Threshold-10, and Aperture Current-1. Clean counter with Isoterge the morning of experiment and count background before standardizing with CH 0.60 Hematology Controls. After cell counts are obtained, dilute to 6×10^6 cells/ml with supplemented RPMI and aliquot into 3 tubes for the 3 assays.
1. Pipet 100 μl control media (supplemented RPMI) or appropriate dilution of mitogen (starting with lowest concentration) into microtiter plate using Titertek multi-channel pipetter. Place plates in 37° C. CO2 incubator with CO2 set at 0.5 after each plate has been pipetted. Pipet 100 μl responder cells into wells starting with most dilute mitogen concentration. Place plates in incubator as they are filled and after all plates are in incubator, let sit for 10-20 minutes. Wrap plates with plastic wrap, recover with top, replace in incubator, and reset CO2 to ~0.05. Save ~50 ml supplemented RPMI at 4° C. for thymidine dilution.

Oc1ncnc2c1nc1n2CCS1 [NPT 16416, 3-hydroxy-7,8-dihydrothiazolo-[3,2e]-purine]
mortality ([1]; 50 mg/kg i.p., Balb/C mice): no mortality
deaths ([1]; 500 mg/kg p.o., Balb/c mice): no deaths
activity at 0.01 µg/mL ([2]; read-out: Hi Mitogen D/C LPS): 105%
activity at 0.01 µg/mL ([2]; read-out: Lo Mitogen D/C LPS): 130%
activity at 0.1 µg/mL ([2]; drug 100 ng/ml, LPS 5 μg/ml, drug/control, read-out: Lo Mitogen D/C LPS): 157%
activity at 0.1 µg/mL ([2]; drug 100 ng/ml, LPS 100 μg/ml, drug/control, read-out: Hi Mitogen D/C LPS): 114%
activity at 1 µg/mL ([2]; drug 1,000 ng/ml, LPS 5 μg/ml, drug/control, read-out: Lo Mitogen D/C LPS): 135%
activity at 1 µg/mL ([2]; drug 1,000 ng/ml, LPS 5 μg/ml, read-out: LPS D/C (maximum values)): 201%
activity at 1 µg/mL ([2]; drug 1,000 ng/ml, LPS 100 μg/ml, drug/control, read-out: Hi Mitogen D/C LPS): 117%
activity at 2.5 µg/mL ([2]; drug 2,500 ng/ml, LPS 5 μg/ml, drug/control, read-out: Lo Mitogen D/C LPS): 136%
activity at 2.5 µg/mL ([2]; drug 2,500 ng/ml, LPS 100 μg/ml, drug/control, read-out: Hi Mitogen D/C LPS): 107%
activity at 5 µg/mL ([2]; drug 5,000 ng/ml, LPS 5 μg/ml, drug/control, P < 0.05, read-out: Lo Mitogen D/C LPS): 168%
activity at 5 µg/mL ([2]; drug 5,000 ng/ml, LPS 100 μg/ml, drug/control, read-out: Hi Mitogen D/C LPS): 105%
activity at 25 µg/mL ([2]; drug 25,000 ng/ml, LPS 5 μg/ml, drug/control, P < 0.005, read-out: Lo Mitogen D/C LPS): 249%
activity at 25 µg/mL ([2]; drug 25,000 ng/ml, LPS 5 μg/ml, read-out: LPS D/C (maximum values)): 236%
activity at 25 µg/mL ([2]; drug 25,000 ng/ml, LPS 100 μg/ml, drug/control, P < 0.025, read-out: Hi Mitogen D/C LPS): 157%
activity at 50 µg/mL ([2]; drug 50,000 ng/ml, LPS 5 μg/ml, drug/control, P < 0.005, read-out: Lo Mitogen D/C LPS): 280%
activity at 50 µg/mL ([2]; drug 50,000 ng/ml, LPS 100 μg/ml, drug/control, P < 0.005, read-out: Hi Mitogen D/C LPS): 189%
CPM + LPS ([2]; drug 10 ng/ml, LPS 5 μg/ml): 1,458 CPM
CPM + LPS ([2]; drug 10 ng/ml, LPS 100 μg/ml): 8,603 CPM
CPM + LPS ([2]; drug 100 ng/ml, LPS 5 μg/ml): 1,760 CPM
CPM + LPS ([2]; drug 100 ng/ml, LPS 100 μg/ml): 8,518 CPM
CPM + LPS ([2]; drug 1,000 ng/ml, LPS 5 μg/ml): 1,515 CPM
CPM + LPS ([2]; drug 1,000 ng/ml, LPS 100 μg/ml): 8,689 CPM
CPM + LPS ([2]; drug 2,500 ng/ml, LPS 5 μg/ml): 1,522 CPM
CPM + LPS ([2]; drug 2,500 ng/ml, LPS 100 μg/ml): 7,975 CPM
CPM + LPS ([2]; drug 5,000 ng/ml, LPS 5 μg/ml): 1,881 CPM
CPM + LPS ([2]; drug 5,000 ng/ml, LPS 100 μg/ml): 7,788 CPM
CPM + LPS ([2]; drug 25,000 ng/ml, LPS 5 μg/ml): 2,789 CPM
CPM + LPS ([2]; drug 25,000 ng/ml, LPS 100 μg/ml): 11,683 CPM
CPM + LPS ([2]; drug 50,000 ng/ml, LPS 5 μg/ml): 3,132 CPM
CPM + LPS ([2]; drug 50,000 ng/ml, LPS 100 μg/ml): 14,065 CPM
effect on B-cell response / LPS induced proliferation, in words ([2]; in vitro): enhance B-cell proliferation
augmentation of LPS induced lymphocyte proliferation ([2]; in vitro, mouse spleen cells): 30-180%
effect on B-cell response / LPS induced proliferation, in words ([2]; in vitro, listed as Ia): stimulating the B-cell response
